Test results as given in patent US20230144436A1, “MUSCLE TARGETING COMPLEXES AND USES THEREOF FOR TREATING MYOTONIC DYSTROPHY” (Dyne Therapeutics, Inc., priority 2020, published 2023).

tested on: DMPK; assay: DMPK knockdown by transfected antisense oligonucleotides in DM1 C15 myotubes at 0.5 nM and 50 nM; assay type: cell-based; conditions: 0.5 nM oligonucleotide, 72 hours, qPCR, relative to vehicle control
Procedure: Two hundred and thirty-six oligonucleotides for targeting DMPK were generated using in silico analysis. Each individual oligonucleotide was evaluated for their ability to target DMPK in cellulo at two doses—0.5 nM (low dose) and 50 nM (high dose).
Briefly, DM1 C15 immortalized myoblasts were cultured in T-75 flasks until near confluency (˜80% confluent). Myoblasts were then disrupted with trypsin and seeded into 96-well microplates at a density of 50,000 cells/well. Cells were allowed to recover overnight before the growth media was washed out and replaced with a no-serum media to induce differentiation into myotubes. Differentiation proceeded for seven days prior to treatment with DMPK-targeting oligonucleotides.
On day seven following induction of differentiation, DM1 C15 myotubes were transfected with an individual oligonucleotide using 0.3 μL of Lipofectamine MessengerMax per well. All oligonucleotides were tested at both 0.5 nM and 50 nM final concentrations in biological triplicates. After treatment with oligonucleotides, cells were incubated for 72 hours prior to being harvested for total RNA. cDNA was synthesized from the total RNA extracts and qPCR was performed to determine expression levels of DMPK in technical quadruplicate. All qPCR data were analyzed using a traditional […] method and were normalized to a plate-based negative control that comprised cells treated with vehicle control (0.3 μL/well Lipofectamine MessengerMax without any oligonucleotide). Results from these experiments are shown in Table 10. ‘Normalized DMPK Remaining’ for each antisense oligonucleotide in Table 10 refers to the expression level of DMPK in cell treated with said antisense oligonucleotide relative to the negative control that comprised cells treated with vehicle control (wherein the expression level of the negative control has been normalized to equal 1.00)

Row | Substance | Percent DMPK Reduction [%]
1 | 305 (UGAUCUUCAUGGCAUACACC; chemistry not given here) [compound 305] | 27.70
2 | 306 (AGGGACAGCCGCUGGAACTG; chemistry not given here) [compound 306] | 28.72
3 | 307 (GGGUUUGAUGUCCCUGUGCA; chemistry not given here) [compound 307] | 40.12
4 | 308 (UGACAAUCUCCGCCAGGUAG; chemistry not given here) [compound 308] | 38.86
5 | 309 (CACAGCGGUCCAGCAGGAUG; chemistry not given here) [compound 309] | 6.62
6 | 311 (CUCAGCCUCUGCCGCAGGGA; chemistry not given here) [compound 311] | 17.86
7 | 312 (GUCUCAGUGCAUCCAAAACG; chemistry not given here) [compound 312] | 18.85
8 | 314 (UCAGCAGUGUCAGCAGGUCC; chemistry not given here) [compound 314] | 33.46
9 | 315 (GCUCCUGGGCGGCGCCAGAC; chemistry not given here) [compound 315] | 8.52
10 | 317 (AUCCGCUCCUGCAACUGCCG; chemistry not given here) [compound 317] | 12.80
11 | 318 (AGGAGCAGGGAAAGCGCCUC; chemistry not given here) [compound 318] | 33.24
12 | 319 (ACACCUGGCCCGUCUGCUUC; chemistry not given here) [compound 319] | 33.00
13 | 321 (GCUCCCUCUGCCUGCAGCAA; chemistry not given here) [compound 321] | 26.41
14 | 322 (GCUCAGGCUCUGCCGGGUGA; chemistry not given here) [compound 322] | 25.69
15 | 323 (UUGAUGUCCCUGUGCACGUA; chemistry not given here) [compound 323] | 25.67
16 | 324 (GCCUCAGCCUCUGCCGCAGG; chemistry not given here) [compound 324] | 16.37
17 | 325 (GGUAGUUCUCAUCCUGGAAG; chemistry not given here) [compound 325] | 25.48
18 | 326 (CAGCGCCCACCAGUCACACU; chemistry not given here) [compound 326] | 37.28

same assay, conditions: 0.5 nM oligonucleotide, 72 hours, qPCR, relative to vehicle control = 1.00

Row | Substance | Normalized DMPK Remaining
19 | 305 (UGAUCUUCAUGGCAUACACC; chemistry not given here) [compound 305] | 0.72
20 | 306 (AGGGACAGCCGCUGGAACTG; chemistry not given here) [compound 306] | 0.71
21 | 307 (GGGUUUGAUGUCCCUGUGCA; chemistry not given here) [compound 307] | 0.60
22 | 308 (UGACAAUCUCCGCCAGGUAG; chemistry not given here) [compound 308] | 0.61
23 | 309 (CACAGCGGUCCAGCAGGAUG; chemistry not given here) [compound 309] | 0.93
24 | 311 (CUCAGCCUCUGCCGCAGGGA; chemistry not given here) [compound 311] | 0.82
25 | 312 (GUCUCAGUGCAUCCAAAACG; chemistry not given here) [compound 312] | 0.81
26 | 314 (UCAGCAGUGUCAGCAGGUCC; chemistry not given here) [compound 314] | 0.67
27 | 315 (GCUCCUGGGCGGCGCCAGAC; chemistry not given here) [compound 315] | 0.91
28 | 317 (AUCCGCUCCUGCAACUGCCG; chemistry not given here) [compound 317] | 0.87
29 | 318 (AGGAGCAGGGAAAGCGCCUC; chemistry not given here) [compound 318] | 0.67
30 | 319 (ACACCUGGCCCGUCUGCUUC; chemistry not given here) [compound 319] | 0.67
31 | 321 (GCUCCCUCUGCCUGCAGCAA; chemistry not given here) [compound 321] | 0.74
32 | 322 (GCUCAGGCUCUGCCGGGUGA; chemistry not given here) [compound 322] | 0.74
33 | 323 (UUGAUGUCCCUGUGCACGUA; chemistry not given here) [compound 323] | 0.74
34 | 324 (GCCUCAGCCUCUGCCGCAGG; chemistry not given here) [compound 324] | 0.84
35 | 325 (GGUAGUUCUCAUCCUGGAAG; chemistry not given here) [compound 325] | 0.75
36 | 326 (CAGCGCCCACCAGUCACACU; chemistry not given here) [compound 326] | 0.63

same assay, conditions: 50 nM oligonucleotide, 72 hours, qPCR, relative to vehicle control

Row | Substance | Percent DMPK Reduction [%]
37 | 305 (UGAUCUUCAUGGCAUACACC; chemistry not given here) [compound 305] | 89.68
38 | 306 (AGGGACAGCCGCUGGAACTG; chemistry not given here) [compound 306] | 45.34
39 | 307 (GGGUUUGAUGUCCCUGUGCA; chemistry not given here) [compound 307] | 62.61
40 | 308 (UGACAAUCUCCGCCAGGUAG; chemistry not given here) [compound 308] | 66.56
41 | 309 (CACAGCGGUCCAGCAGGAUG; chemistry not given here) [compound 309] | 59.58
42 | 311 (CUCAGCCUCUGCCGCAGGGA; chemistry not given here) [compound 311] | 79.58
43 | 312 (GUCUCAGUGCAUCCAAAACG; chemistry not given here) [compound 312] | 46.13
44 | 314 (UCAGCAGUGUCAGCAGGUCC; chemistry not given here) [compound 314] | 61.11
45 | 315 (GCUCCUGGGCGGCGCCAGAC; chemistry not given here) [compound 315] | 78.79
46 | 317 (AUCCGCUCCUGCAACUGCCG; chemistry not given here) [compound 317] | 40.06
47 | 318 (AGGAGCAGGGAAAGCGCCUC; chemistry not given here) [compound 318] | 62.37
48 | 319 (ACACCUGGCCCGUCUGCUUC; chemistry not given here) [compound 319] | 55.40
49 | 321 (GCUCCCUCUGCCUGCAGCAA; chemistry not given here) [compound 321] | 70.15
50 | 322 (GCUCAGGCUCUGCCGGGUGA; chemistry not given here) [compound 322] | 60.71
51 | 323 (UUGAUGUCCCUGUGCACGUA; chemistry not given here) [compound 323] | 55.13
52 | 324 (GCCUCAGCCUCUGCCGCAGG; chemistry not given here) [compound 324] | 46.42
53 | 325 (GGUAGUUCUCAUCCUGGAAG; chemistry not given here) [compound 325] | 56.15
54 | 326 (CAGCGCCCACCAGUCACACU; chemistry not given here) [compound 326] | 64.93

same assay, conditions: 50 nM oligonucleotide, 72 hours, qPCR, relative to vehicle control = 1.00

Row | Substance | Normalized DMPK Remaining
55 | 305 (UGAUCUUCAUGGCAUACACC; chemistry not given here) [compound 305] | 0.10
56 | 306 (AGGGACAGCCGCUGGAACTG; chemistry not given here) [compound 306] | 0.55
57 | 307 (GGGUUUGAUGUCCCUGUGCA; chemistry not given here) [compound 307] | 0.37
58 | 308 (UGACAAUCUCCGCCAGGUAG; chemistry not given here) [compound 308] | 0.33
59 | 309 (CACAGCGGUCCAGCAGGAUG; chemistry not given here) [compound 309] | 0.40
60 | 311 (CUCAGCCUCUGCCGCAGGGA; chemistry not given here) [compound 311] | 0.20
61 | 312 (GUCUCAGUGCAUCCAAAACG; chemistry not given here) [compound 312] | 0.54
62 | 314 (UCAGCAGUGUCAGCAGGUCC; chemistry not given here) [compound 314] | 0.39
63 | 315 (GCUCCUGGGCGGCGCCAGAC; chemistry not given here) [compound 315] | 0.21
64 | 317 (AUCCGCUCCUGCAACUGCCG; chemistry not given here) [compound 317] | 0.60
65 | 318 (AGGAGCAGGGAAAGCGCCUC; chemistry not given here) [compound 318] | 0.38
66 | 319 (ACACCUGGCCCGUCUGCUUC; chemistry not given here) [compound 319] | 0.45
67 | 321 (GCUCCCUCUGCCUGCAGCAA; chemistry not given here) [compound 321] | 0.30
68 | 322 (GCUCAGGCUCUGCCGGGUGA; chemistry not given here) [compound 322] | 0.39
69 | 323 (UUGAUGUCCCUGUGCACGUA; chemistry not given here) [compound 323] | 0.45
70 | 324 (GCCUCAGCCUCUGCCGCAGG; chemistry not given here) [compound 324] | 0.54
71 | 325 (GGUAGUUCUCAUCCUGGAAG; chemistry not given here) [compound 325] | 0.44
72 | 326 (CAGCGCCCACCAGUCACACU; chemistry not given here) [compound 326] | 0.35
